This is an account of results in a melting point compilation (Tetko et al.; mined from patent text by program, amines drawn as free bases though some values may be those of a salt).

Broadly, the melting point is the temperature, or range, at which the solid turns liquid.

Molecules are shown by their SMILES.

Molecule `CC(=O)OC1CSC(Oc2cncc(-c3ccc(C#N)c(Cl)c3)c2)C(OC(C)=O)C1OC(C)=O` (centres undefined) yielded a melting point of 148 to 150 °C.
To `COc1ncccc1NC(=O)Nc1ccc(N2CCN(C(=O)Nc3ccc(OCCO)cc3C(F)(F)F)CC2)cc1` belongs 120 to 123 °C.
The value for `CC(CCNC(=O)c1ccc(OC(F)(F)F)cc1)CC(C)(C)CNC(=O)c1ccc(OC(F)(F)F)cc1` (centres undefined) was 97 to 99 °C.
Consider `Cc1c(C(=O)Cl)c(C)c2cccc(C)c2c1C`, for which the melting point came out at 216 °C.
In turn, `Cc1ncn(Nc2cccc(Cl)c2)c1C` displayed a melting point of 146 °C.
Take `Cc1ccc(Oc2c(-c3ccc(S(C)(=O)=O)cc3)oc(C(F)F)cc2=O)cc1`: the melting point turned out to be 160 °C.
To `Cc1cc(=O)[nH]c2ccc(Br)cc12` belongs 292 to 299 °C; to `COc1cc(O)ccc1-c1ccc2cc(O)ccc2c1`, 152 to 154 °C; to `Cc1c(S(=O)(=O)c2ccc(=O)[nH]n2)oc2ccc(C(F)(F)F)cc12`, 244 to 245 °C.
Take `CC(C)N(CCNc1ccc([N+](=O)[O-])c2ccccc12)C(C)C`: the melting point fell in the range of 63 to 64 °C.
The value for `CC1=CC(=O)N(c2cc(NS(=O)(=O)c3cccc4c(N(C)C)cccc34)cc(N3C(=O)C=C(C)C3=O)c2)C1=O` was 230 °C; that for `Brc1cccc2c(-c3ccccc3)coc12` was 69.5 to 71.5 °C.
In turn, `COc1ccc(-c2c(Cl)c(COc3ccccn3)nc3sc4c(c23)CCN(Cc2ccccc2)C4)cc1OC` registered a melting point of 165 to 167 °C.
Take `CCOC(=O)c1sc(-n2ccc(OC)cc2=O)nc1C`: the melting point fell in the range of 163 to 165 °C.
Regarding `Cc1nc2cc(CN3CCN(C(c4ccccc4)c4ccccc4)CC3)ccc2n1CCSc1ccccc1`, the melting point turned out to be 170 °C.
The value for `COc1ccc2c(c1)C(=O)CC1C2C(O)CC2(C)C(O)CCC12` (centres undefined) was 113 to 114 °C.
The value for `O=C(NCCc1ccccc1)[C@@H]1Cc2ccccc2N1` was 112 to 116 °C; that for `Nc1nc(N)c(N=O)c(OCC2CCCCC2)n1` was 254 °C.
Molecule `Cc1ccc2c(c1)C(C(F)(F)F)(C(F)(F)F)c1cc(C)ccc1O2` displayed a melting point of 136 to 137 °C.
As for `COc1ccc(C(=O)c2c(F)cccc2F)cc1OC`, the melting point lay in the range of 100 to 101 °C.
Molecule `Cc1c(SCCCN2CCN(Cc3ccc(Cl)s3)CC2)ccnc1CS(=O)c1nc2ccccc2[nH]1` (centres undefined) returned a melting point of 54 to 58 °C.
Molecule `O=C1c2ccccc2C(=O)N1CCOc1cc(F)ccc1O` returned a melting point of 172 °C.
The molecule `COc1ccc2ccc(NC(=O)c3ccco3)nc2n1` registered a melting point of 201 °C.
As to `OCc1cccc2c1nc(-c1c(F)cccc1F)n2Cc1c(F)cccc1F`, the melting point was in the range of 157 to 158 °C.
`OC(Cn1ccnc1)c1ccc2c(c1)Cc1ccccc1-2` (centres undefined) returned a melting point of 196 to 199 °C.
The value for `CN1CCC(C(O)(c2ccc(F)cc2)c2ccc3ccccc3c2)CC1` (centres undefined) was 164 to 169 °C; that for `CCOC(=O)c1cnc2c(c(C)nc3cc(C)nn32)c1NC(C)CC` (centres undefined) was 113 to 115 °C.
Regarding `CSc1nc(N)nc(Cl)c1-c1ccc(Cl)cc1Cl`, the melting point was 201 to 202 °C.
In the case of `OCc1onc(-c2ccc(Cl)o2)c1-c1ccccc1`, the melting point is 102 to 103 °C.
The value for `O=C1NC2(NC1=O)Oc1ccccc1O2` was 202 °C; that for `CCN(CC)CCSC1=C(C#N)C(c2ccccc2)(c2cccc(C(F)(F)F)c2)C(=O)N1` (centres undefined) was 127 °C; that for `COc1ccc2c(c1)CCC1C2CCC2(C)C1CCC2N(C=O)CCCO` (centres undefined) was 159 to 161 °C.
To `O=C(O)c1ccc(CCCC2SCC(=O)N2CCC2(O)CCCCC2)cc1Cl` (centres undefined) belongs 104 to 108 °C.
`COc1ccc(C2COc3ccc(-c4nnc(C)o4)cc32)cc1` (centres undefined) registered a melting point of 117 to 118 °C.
To `CCOC(=O)/C=C/c1cc(OCc2ccccc2)ccc1OCC` belongs 124 to 125 °C; to `Cc1c2c(c(C#N)c(=O)n1C)-c1ccccc1C2=O`, 271 to 274 °C.
With `COC(=O)c1cc2sccc2nc1C(=O)OC`, the melting point was 121 to 124 °C.
Turning to `CCOC(=O)c1cnc(-c2cc([N+](=O)[O-])ccc2OCC)[nH]c1=O`, the melting point fell in the range of 222 to 224 °C.
The molecule `CC(C)(C)OC(=O)N1CCC(Cc2c[nH]c3ccc(F)cc23)CC1` had a melting point of 144 to 145 °C.
`COc1cc(C)c2c(c1)c1c(n2Cc2ccc(Cl)cc2)C(CC(=O)O)CCC1` (centres undefined): the melting point stood at 188 °C.
With `Cc1ccc(-c2cc3cc(C(=O)O)ccc3o2)cc1`, the melting point fell in the range of 279 to 283 °C.
The molecule `Cn1cnc2c([N+](=O)[O-])cc(Br)cc21` yielded a melting point of 198 °C.
The molecule `CN1CCN(C(=O)c2cc([N+](=O)[O-])cc3c2OCCO3)CC1` displayed a melting point of 218 °C.
As to `CC(=O)C1CCC2C3CCC4CC(OS(C)(=O)=O)CCC4(C)C3C(OC(=O)CI)CC12C` (centres undefined), the melting point was in the range of 142 to 143 °C.
For `CN(C(=O)OCc1ccccc1)c1ccc2c(c1)C(=O)C1(CC1)O2`, the melting point was 79 to 81 °C.
For the molecule `CSC(C)(C)c1nnc(N)s1`, the melting point was 195 to 197 °C.
For `Cc1noc(=O)c2ccc(NC(=O)C(=O)CC3(c4cccc(C(F)(F)F)c4F)CC3)cc12`, the melting point lay in the range of 117 to 118 °C.
Consider `O=C(OCC1OC(n2cnc3c(NCC(c4ccccc4)c4ccccc4)ncnc32)C(OC(=O)c2ccccc2)C1OC(=O)c1ccccc1)c1ccccc1` (centres undefined), for which the melting point lay within 60 to 75 °C.
Regarding `COCOC(c1cc(CBr)ccc1I)(C(F)(F)F)C(F)(F)F`, the melting point is 93 °C.
As for `COC(=O)CN(C)C(=O)CC(Cc1cccc2ccccc12)C(=O)NC(Cc1c[nH]cn1)C(=O)NC(CC(C)C)C(O)C(=O)OC(C)C` (mixture of isomers), the melting point fell in the range of 76 to 80 °C.
`CN(c1cccc2cc(C3=NCC(C)(CN4CCOCC4)S3)[nH]c12)S(=O)(=O)c1cccs1` (centres undefined) displayed a melting point of 146 to 147 °C.
For the molecule `CC1Cc2cccc(S(=O)(=O)NC(C)(C)C)c2S1` (centres undefined), the melting point fell in the range of 97 to 98 °C.
The molecule `C#Cc1cccc(Nc2ncnc3ccc(S(=O)(=O)n4ccc(C=CC(=O)Nc5ccccc5NC(=O)OC(C)(C)C)c4)cc23)c1` registered a melting point of 146 to 150 °C.
In the case of `COc1ccc2c(c1)C(=O)C(=O)N2CCN(C(C)C)C(C)C`, the melting point lay within 81 to 82.5 °C.
With `COc1ccc(/C=C/c2c(Cl)cncc2Cl)c2cc(-c3ccccn3)oc12`, the melting point fell in the range of 157 to 158 °C.
As for `CC1CC(=O)NN=C1c1ccc(N2CCN(Cc3ccccc3)CC2)c([N+](=O)[O-])c1` (centres undefined), the melting point was in the range of 220 to 221 °C.
Consider `CN(C)c1ccc(NC(=O)N(C[C@H]2CCC[C@H](CN(C(=O)Nc3ccc(N(C)C)cc3)C3CCCCCC3)C2)C2CCCCCC2)cc1` (relative stereo), for which the melting point fell in the range of 109 to 114 °C.
As to `CNC(=O)NCCN1CCC(Nc2nc3ccccc3n2Cc2cnc(C)o2)CC1`, the melting point was 203 °C.
To `Nc1cnc(NCCSCc2csc(CN3CCCCC3)c2)[nH]c1=O` belongs 150 to 155 °C.
Take `O=C(CCCc1ccccc1)N[C@@H](Cc1ccccc1)C(=O)O`: the melting point was determined as 178 °C.
As for `COc1cc(C(=O)O)ccc1Cc1cn(C)c2ccc(CC(C)NC(=O)N(C)C)cc12` (centres undefined), the melting point fell in the range of 162 to 163 °C.
The molecule `COc1ccc2c(c1)C(CCNC(=O)c1ccc(Br)cc1)CC2` (centres undefined) registered a melting point of 142 to 143 °C.
Molecule `Cc1c(CC(=O)O)c2cc(OCc3ccccn3)ccc2n1Cc1ccc(Cl)cc1` showed a melting point of 231 to 233 °C.
The value for `CCc1nc2cc(NS(C)(=O)=O)c(Cl)cc2n1-c1ccc(CCNC(=O)NS(=O)(=O)c2ccc(C)cc2)cc1` was 101 to 123 °C; that for `Cc1cc2c(cc1C(F)(F)F)N(Cc1cccc(C(=O)O)c1)CCC[C@@H]2N(Cc1cc(C(F)(F)F)cc(C(F)(F)F)c1)c1nnn(C)n1` was 83 to 86 °C.
`C[C@@H](n1cnc2cc(-c3ccc(N)cc3)sc2c1=O)[C@](O)(Cn1cncn1)c1ccc(F)cc1F` came in with a melting point of 184 to 186 °C.
In turn, `CC(C)(C)c1ccc(CCNc2ncnc3ccncc23)cc1` had a melting point of 157 to 158 °C.
As to `CC(=O)OCC1Cc2cc(I)ccc2N1` (centres undefined), the melting point fell in the range of 64 to 66 °C.
The molecule `CCCCCCCCCCCCOCCCNc1cc(OCC(=O)Nc2ccc(NNC=O)cc2)c2ccccc2c1O` had a melting point of 137 to 141 °C.
The molecule `CCOC(=O)c1cc2ccc(OC)cc2n1CCNC(C)=O` came in with a melting point of 159 to 160 °C.
In turn, `CC(Oc1ccc(Cl)cc1Cl)c1nnc(N=C=O)s1` (centres undefined) showed a melting point of 176 to 179 °C.
The molecule `Nc1ccc2ccc(N)nc2n1` displayed a melting point of 222 to 223 °C.
Regarding `CC(=O)Nc1ccc(-c2cc(C(=O)c3ccc(C)cc3)sc2N2CCOCC2)cc1`, the melting point worked out at 168 °C.
The molecule `O=[N+]([O-])c1ccc(Oc2ccc(C(c3ccc(Oc4ccc([N+](=O)[O-])cc4)cc3)(C(F)(F)F)C(F)(F)F)cc2)cc1` yielded a melting point of 150 to 152 °C.
Turning to `c1ccc(COc2ccc3nc(-c4ccc(OCc5ccccc5)c(C56CC7CC(CC(C7)C5)C6)c4)[nH]c3c2)cc1`, the melting point lay within 265 to 275 °C.
In the case of `COc1ccc(Nc2ccc(Nc3ncnc4cc(-c5ccccc5)sc34)cc2)cc1`, the melting point lay within 210 to 211 °C.
`O=C(C=Cc1ccc(NS(=O)(=O)c2ccccc2)cc1)NO` had a melting point of 189 to 191 °C.
To `CCCCCCCCCCCCCCCCCC(=O)ON1C(C)(C)CC(OC(=O)c2ccccc2)CC1(C)C` belongs 85 to 89 °C; to `COc1cccc(Oc2ccc3nc(C(C)=O)c(O)cc3c2)c1`, 102 to 104 °C; to `COc1ccc(N2C(=O)N(c3cccc(C(N)=O)c3)c3nc(Nc4ccccc4)ncc3C2C)cc1` (centres undefined), 268 to 273 °C.
The value for `CC(C)CCC1CCCCCc2c1oc(=O)c(C(c1ccccc1)C1CC1)c2O` (centres undefined) was 83 to 88 °C; that for `CCCCNc1ccc(C(=O)O)cc1N` was 158 °C.
The molecule `CCOC(=O)CCCOc1ccc(NC(=O)c2ccc(C(C)(C)C)cc2)cc1` came in with a melting point of 100 to 101 °C.
The molecule `Cc1cc(C)cc(C(=O)N2CCC(N3CCC(=C4c5ccccc5CCn5ccnc54)CC3)CC2Cc2ccccc2)c1` (centres undefined) displayed a melting point of 139 °C.
